Activity calls are given as the source filed them. No cut-off for these calls is given here.
Experiments:
Acetylcholinesterase = target: T1, Acetylcholinesterase (Mus musculus, UniProt P21836); assay: Inhibition of mouse AChE using acetylthiocholine iodide as substrate incubated for 20 mins by Ellman's method
T1 sequence (P21836 whole entry): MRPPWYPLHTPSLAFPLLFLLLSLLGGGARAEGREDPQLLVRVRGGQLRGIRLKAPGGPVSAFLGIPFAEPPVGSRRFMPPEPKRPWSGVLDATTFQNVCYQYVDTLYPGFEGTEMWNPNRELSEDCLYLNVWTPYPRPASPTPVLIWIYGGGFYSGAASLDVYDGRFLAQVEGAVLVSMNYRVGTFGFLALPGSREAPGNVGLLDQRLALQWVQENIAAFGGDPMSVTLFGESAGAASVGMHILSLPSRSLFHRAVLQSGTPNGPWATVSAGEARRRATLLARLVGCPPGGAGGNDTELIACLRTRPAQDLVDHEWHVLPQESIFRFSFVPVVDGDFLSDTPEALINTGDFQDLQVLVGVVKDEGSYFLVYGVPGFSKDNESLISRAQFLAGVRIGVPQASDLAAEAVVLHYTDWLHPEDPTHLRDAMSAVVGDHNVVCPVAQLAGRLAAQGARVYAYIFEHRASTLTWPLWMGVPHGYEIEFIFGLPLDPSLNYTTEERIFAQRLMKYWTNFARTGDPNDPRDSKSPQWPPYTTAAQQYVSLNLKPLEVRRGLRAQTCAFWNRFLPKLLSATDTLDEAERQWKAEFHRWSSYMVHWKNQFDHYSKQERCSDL

[1] = target: T2, Glycogen synthase kinase-3 beta (Homo sapiens, UniProt P49841); assay: Inhibition of human recombinant GSK-3beta using prephosphorylated polypeptide as substrate incubated for 30 mins in presence of ATP by Kinase-Glo luminescence assay relative to control
Target sequence in this assay (P49841 whole entry, looked up): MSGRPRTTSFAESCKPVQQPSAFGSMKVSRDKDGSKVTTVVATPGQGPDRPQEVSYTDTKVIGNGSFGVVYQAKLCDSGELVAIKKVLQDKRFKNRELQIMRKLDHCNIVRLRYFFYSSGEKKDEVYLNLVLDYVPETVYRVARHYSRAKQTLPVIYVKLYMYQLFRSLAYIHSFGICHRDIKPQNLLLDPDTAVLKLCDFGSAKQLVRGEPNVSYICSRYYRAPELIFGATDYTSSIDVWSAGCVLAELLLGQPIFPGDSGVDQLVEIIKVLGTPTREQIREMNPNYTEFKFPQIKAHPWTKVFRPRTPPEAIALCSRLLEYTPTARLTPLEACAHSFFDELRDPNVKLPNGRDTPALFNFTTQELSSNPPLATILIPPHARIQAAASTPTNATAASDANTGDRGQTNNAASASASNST

[2] = target: T2, Glycogen synthase kinase-3 beta
Target sequence in this assay (P49841 whole entry): as the sequence (P49841 whole entry, looked up) above

[3] = Toxicity in ICR mouse assessed as swimming motility impairment at 15 mg/kg, ip measured after 15 days; type: organism-based; conditions: in vivo, 360 h, time 15 day
[4] = Toxicity in ICR mouse assessed as emesis at 15 mg/kg, ip measured after 15 days; type: organism-based; conditions: in vivo, 360 h, time 15 day
[5] = Toxicity in ICR mouse assessed as diarrhea at 15 mg/kg, ip measured after 15 days; type: organism-based; conditions: in vivo, 360 h, time 15 day
[6] = target: T3, Acetylcholinesterase (Mus musculus) (UniProt P21836); assay: Inhibition of mouse AChE using acetylthiocholine iodide as substrate at 1 uM incubated for 20 mins by Ellman's method relative to control
T3 sequence (whole entry): T1 sequence (P21836 whole entry)

SH-SY5Y [7] = assay: Neuroprotective activity against glyceraldehyde-induced neurotoxicity in human SH-SY5Y cells assessed as increase in cell viability at 0.5 to 5 uM incubated for 24 hrs by MTT assay; type: functional, cell-based; conditions: dose 0.5-5 µM
SH-SY5Y [8] = assay: Neuroprotective activity in human SH-SY5Y cells assessed as prevention of glyceraldehyde-induced neurite shortening at 0.5 to 5 uM incubated for 1 hr by confocal microsocopic analysis; type: functional, cell-based; conditions: dose 0.5-5 µM

SMILES	IC50 (Acetylcholinesterase)	inhibition [1]	IC50 [2]	other results
Cn1c(NCCNc2c3c(nc4ccc(F)cc24)CCCC3)nc(-c2ccncc2)cc1=O	0.37 µM	< 50%	–	–
Cn1c(NCCCCCCNc2c3c(nc4cc(Br)ccc24)CCCC3)nc(-c2ccncc2)cc1=O	45 µM	< 60%	–	–
Cn1c(NCCNc2c3c(nc4cc(C(F)(F)F)ccc24)CCCC3)nc(-c2ccncc2)cc1=O	11.3 µM	< 50%	–	–
Cn1c(NCCNc2c3c(nc4cc(F)ccc24)CCCC3)nc(-c2ccncn2)cc1=O	0.18 µM	< 50%	–	–
Cn1c(NCCCCCCCNc2c3c(nc4cc(F)ccc24)CCCC3)nc(-c2ccncc2F)cc1=O	134 µM	–	104 µM	–
Cn1c(NCCCCCCCNc2c3c(nc4cc(Br)ccc24)CCCC3)nc(-c2ccncc2)cc1=O	39 µM	< 60%	–	–
Cc1ccc2c(NCCCCCCNc3nc(-c4ccncc4F)cc(=O)n3C)c3c(nc2c1)CCCC3	298 µM	–	239 µM	–
Cn1c(NCCNc2c3c(nc4ccc(Cl)cc24)CCCC3)nc(-c2ccncc2)cc1=O	10.9 µM	< 50%	–	–
Cn1c(NCCNc2c3c(nc4cc(Cl)ccc24)CCCC3)nc(-c2ccncc2)cc1=O	0.49 µM	< 50%	–	–
Cn1c(NCCCCCCNc2c3c(nc4ccc(F)cc24)CCCC3)nc(-c2ccncc2F)cc1=O	2210 µM	–	154 µM	–
Cn1c(NCCNc2c3c(nc4cc(Br)ccc24)CCCC3)nc(-c2ccncc2)cc1=O	0.44 µM	< 50%	–	–
Cc1ccc2c(NCCCCCCCNc3nc(-c4ccncc4)cc(=O)n3C)c3c(nc2c1)CCCC3	145 µM	< 60%	–	–
Cn1c(NCCNc2c3c(nc4cc(F)ccc24)CCCC3)nc(-c2ccncc2)cc1=O	3.9 µM	< 50%	–	–
Cn1c(NCCCCCCCNc2c3c(nc4ccc(F)cc24)CCCC3)nc(-c2ccncc2F)cc1=O	2380 µM	–	96.1 µM	–
Cn1c(NCCNc2c3c(nc4ccccc24)CCCC3)nc(-c2ccncn2)cc1=O	0.8 µM	–	5.63 µM	–
Cn1c(NCCNc2c3c(nc4ccccc24)CCCC3)nc(-c2ccncc2F)cc1=O	4.98 µM	–	1.18 µM	–
Cn1c(NCCCCCCCNc2c3c(nc4ccccc24)CCCC3)nc(-c2ccncc2F)cc1=O	352 µM	–	67.2 µM	–
Cn1c(NCCCCCCNc2c3c(nc4ccc(F)cc24)CCCC3)nc(-c2ccncc2)cc1=O	2420 µM	< 60%	–	–
Cn1c(NCCCCCCNc2c3c(nc4ccccc24)CCCC3)nc(-c2ccncc2F)cc1=O	631 µM	–	126 µM	–
COc1cc2c(cc1OC)C(=O)C(CC1CCN(Cc3ccccc3)CC1)C2 (stereo not given) [DONEPEZIL]	–	–	> 100 µM	–
Cn1c(NCCNc2c3c(nc4cc(Cl)ccc24)CCCC3)nc(-c2ccncc2F)cc1=O	0.16 µM	–	14 µM	–
Cn1c(NCCNc2c3c(nc4ccc(Cl)cc24)CCCC3)nc(-c2ccncn2)cc1=O	18.8 µM	< 50%	–	–
Cn1c(NCCCCCCNc2c3c(nc4cc(F)ccc24)CCCC3)nc(-c2ccncc2)cc1=O	163 µM	< 60%	–	–
Cn1c(NCCNc2c3c(nc4cc(F)ccc24)CCCC3)nc(-c2ccncc2F)cc1=O	0.73 µM	–	11.9 µM	–
Cn1c(NCCNc2c3c(nc4ccc(Cl)cc24)CCCC3)nc(-c2ccncc2F)cc1=O	9.8 µM	–	8.13 µM	–
Cn1c(NCCCCNc2c3c(nc4ccccc24)CCCC3)nc(-c2ccncc2)cc1=O	1.42 µM	–	0.92 µM	–

SMILES	IC50 (Acetylcholinesterase)	inhibition [1]	IC50 [2]	other results
COc1ccc2c(NCCNc3nc(-c4ccncc4)cc(=O)n3C)c3c(nc2c1)CCCC3	8.3 µM	< 50%	–	–
Cn1c(NCCCCCCCNc2c3c(nc4ccccc24)CCCC3)nc(-c2ccncc2)cc1=O	0.13 µM	–	0.33 µM	Activity [3]: Non-Toxic; Activity [4]: Non-Toxic; Activity [5]: Non-Toxic
Cn1c(NCCNc2c3c(nc4ccc(Br)cc24)CCCC3)nc(-c2ccncc2)cc1=O	15.8 µM	< 50%	–	–
Cc1ccc2c(NCCCCCCNc3nc(-c4ccncc4)cc(=O)n3C)c3c(nc2c1)CCCC3	239 µM	< 60%	–	–
COc1ccc2nc3c(c(NCCNc4nc(-c5ccncc5)cc(=O)n4C)c2c1)CCCC3	15.7 µM	< 50%	–	–
Cn1c(NCCCCCCNc2c3c(nc4cc(F)ccc24)CCCC3)nc(-c2ccncc2F)cc1=O	134 µM	–	174 µM	–
Cn1c(NCCCCCCNc2c3c(nc4cc(Cl)ccc24)CCCC3)nc(-c2ccncc2F)cc1=O	52.7 µM	–	178 µM	–
Cc1ccc2c(NCCCCCCCNc3nc(-c4ccncc4F)cc(=O)n3C)c3c(nc2c1)CCCC3	174 µM	–	137 µM	–
COc1ccc(CNC(=O)Nc2ncc([N+](=O)[O-])s2)cc1	> 40 µM	–	–	–
Cn1c(NCCNc2c3c(nc4cc(Cl)ccc24)CCCC3)nc(-c2ccncn2)cc1=O	0.42 µM	< 50%	–	–
Cn1c(NCCCCCCCNc2c3c(nc4cc(F)ccc24)CCCC3)nc(-c2ccncc2)cc1=O	124 µM	< 60%	–	–
Cc1ccc2nc3c(c(NCCNc4nc(-c5ccncc5)cc(=O)n4C)c2c1)CCCC3	20 µM	< 50%	–	–
COc1ccc2c(NCCNc3nc(-c4ccncn4)cc(=O)n3C)c3c(nc2c1)CCCC3	23 µM	< 50%	–	–
Cn1c(NCCCCCCNc2c3c(nc4ccccc24)CCCC3)nc(-c2ccncc2)cc1=O	0.12 µM	–	0.52 µM	–
Cn1c(NCCNc2c3c(nc4ccc(C(C)(F)F)cc24)CCCC3)nc(-c2ccncc2)cc1=O	–	< 50%	–	inhibition [6]: < 50%
Cn1c(NCCCCCCNc2c3c(nc4cc(Br)ccc24)CCCC3)nc(-c2ccncc2F)cc1=O	70.3 µM	–	179 µM	–
Cn1c(NCCCCCCCNc2c3c(nc4ccc(F)cc24)CCCC3)nc(-c2ccncc2)cc1=O	1800 µM	< 60%	–	–
Cn1c(NCCCCCCCNc2c3c(nc4cc(Br)ccc24)CCCC3)nc(-c2ccncc2F)cc1=O	58.1 µM	–	91 µM	–
Cn1c(NCCNc2c3c(nc4ccccc24)CCCC3)nc(-c2ccncc2)cc1=O	1.06 µM	–	4.04 µM	–
COc1ccc2c(NCCNc3nc(-c4ccncc4F)cc(=O)n3C)c3c(nc2c1)CCCC3	9.92 µM	–	19 µM	–
Cn1c(NCCCCCCCNc2c3c(nc4cc(Cl)ccc24)CCCC3)nc(-c2ccncc2)cc1=O	37.5 µM	< 60%	–	–
O=c1sn(-c2cccc3ccccc23)c(=O)n1Cc1ccccc1	–	–	–	Activity (SH-SY5Y [7]): Active; Activity (SH-SY5Y [8]): Active
Cc1ccc2c(NCCNc3nc(-c4ccncc4)cc(=O)n3C)c3c(nc2c1)CCCC3	1.89 µM	< 50%	–	–
Cn1c(NCCCNc2c3c(nc4ccccc24)CCCC3)nc(-c2ccncc2)cc1=O	2.85 µM	< 50%	–	–
Cn1c(NCCCCCCNc2c3c(nc4cc(Cl)ccc24)CCCC3)nc(-c2ccncc2)cc1=O	53 µM	< 60%	–	–
Cn1c(NCCCCCNc2c3c(nc4ccccc24)CCCC3)nc(-c2ccncc2)cc1=O	0.4 µM	–	1.28 µM	–

— ChEMBL document CHEMBL5032495, “Discovery of Novel Tacrine-Pyrimidone Hybrids as Potent Dual AChE/GSK-3 Inhibitors for the Treatment of Alzheimer's Disease” (J Med Chem, 2021)
